One data set has as its system α1 -receptor. Kind of data set: α1 -blocking activity (inhibition of blood pressure increase due to phenylephrine). It counts as in vivo. The note with it: 10 μg/kg, femoral vein; phenylephrine 2 μg/kg i.v.; anesthetized SD male rat. Here is the method:
The blood pressure (a) of an SD male rat of 7 to 8 weeks of age was measured and 2 μg/kg of phenylephrine was administered to the rat by intravenous injection. Then the maximum response of blood pressure (b) was measured. 10 μg/kg of a sample compound was administered to the rats, followed by the intravenous injection of 2 μg/kg of phenylephrine. Then, the maximum response of blood pressure (c) was measured. The depression (d) of blood pressure increased due to phenylephrine was calculated by the following equation: [formula]
The animal was anesthetized by intraperitoneal administration of 40 mg/kg of nembutal and the anesthetic depth was kept by intravenous drip infusion of 15 mg/kg/hr of pentobarbital sodium. The blood pressure was measured by inserting a polyethylene tube (a product of Clay Adams: PE-50) and using a transducer (a product of Century Technology Company: CP-01) and continuously recorded on a pen oscillograph (a product of Nippon Koden Co., Ltd. WI-6416). Each sample compound was injected by a polyethylene tube (a product of Clay Adams Co., Ltd.: PE-10) inserted into the femoral vein.

Data set [1] deals with T1, isolated vas deferens of a rat (Rattus norvegicus, UniProt P43140).
T1 construct: The vas deferens was isolated from SD male rats and cut into strips about 20 mm long; from tissue; host or cells: vas deferens of SD male rats
T1 sequence (P43140 1-466): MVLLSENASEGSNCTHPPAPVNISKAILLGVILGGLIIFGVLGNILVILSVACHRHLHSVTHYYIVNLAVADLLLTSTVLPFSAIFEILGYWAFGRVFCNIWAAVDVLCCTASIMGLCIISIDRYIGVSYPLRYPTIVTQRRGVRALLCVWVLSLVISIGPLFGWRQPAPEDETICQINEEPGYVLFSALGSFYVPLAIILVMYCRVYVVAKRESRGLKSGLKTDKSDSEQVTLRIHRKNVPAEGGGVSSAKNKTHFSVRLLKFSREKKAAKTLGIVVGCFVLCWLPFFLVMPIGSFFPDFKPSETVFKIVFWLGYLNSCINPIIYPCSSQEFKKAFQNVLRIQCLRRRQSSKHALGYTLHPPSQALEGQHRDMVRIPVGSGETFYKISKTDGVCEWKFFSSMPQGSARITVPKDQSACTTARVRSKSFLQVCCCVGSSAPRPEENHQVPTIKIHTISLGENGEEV
Nature of the data set: Action on isolated vas deferens of a rat (antagonism against noradrenaline). Further details: species or system SD male rat. To be noted: 3 minutes pretreatment, 32° C., read-out: pA2 (converted). Here is the method:
The vas deferens was isolated from SD male rats and cut into strips about 20 mm long. The both ends of the strip were bounded with two threads respectively. The thread attached to one end of the strips was fixed in a 10-ml organ bath and the thread attached to other end was connected to an isotonic transducer. The bath was filled with Tyrode's solution of 32° C. comprising a solution of 8.0 g of NaCl, 0.2 g of KCl, 0.2 g of CaCl2, 0.1 g of MgCl2, 0.05 g of NaH2 PO4, 1.0 g of NaHCO3 and 1.0 g of glucose in 1 l of deionized water. A gas mixture comprising 95% of oxygen and 5% of carbon dioxide was bubbled into the bath. Resting tension of 0.5 g was loaded. Noradrenaline was treated accumulatively in the bath to obtain a consistent dose-response curve. After the pretreatment of the preparation with a sample compound for 3 minutes, another dose-response curve of noradrenaline was obtained to determine the activities of the compound. The strength of antagonism against noradrenaline was determined from these dose-response curves in terms of pA2 value.

Data set [2] in a line: Acute toxicity, intraperitoneal. To be noted: mouse, in vivo, ip, ICR male mice, up-and-down method or van der Welden method. Here is the method:
The acute toxicity due to intraperitoneal administration of a sample compound was examined by using ICR male mice (CRJ-ICR: weight of 29.5 to 52.3 g). Each sample compound was administered to from ten to thirty mice. The mice were observed until the symptom got well again. The LD50 values were determined by the up-and-down method or by van der Welden method.

A further data set concerns SD rat. Nature of the data set: Hypotensive activity, SD rat. Type of data set: in vivo, SD male rat. To be noted: 10 μg/kg, injected into femoral vein, anesthetized SD rat. Here is the method: (§1) The experiment was carried out using an SHR or SD male rat under anesthesia. The blood pressure was measured by inserting a polyethylene tube (a product of Clay Adams Co., Ltd.: PE-50) into its carotid arteries and using a pressure transducer (a product of Century Technology Company: CP-01) and continuously recorded on a recorder (a product of Nippon Koden Co., Ltd.). Sample compounds were each injected by a polyethylene tube (a product of Clay Adams Co., Ltd.: PE-10) inserted into the femoral vein of the rat in an amount of 3 μg/kg for an SHR rat or 10 μg/kg for an SD rat to examine the maximum hypotensive effect on systolic pressure.

The test system of a further data set is SHR rat. Kind of data set: Hypotensive activity, SHR rat. Type of data set: in vivo. To be noted: 3 μg/kg, injected into femoral vein, anesthetized SHR rat. Here is the method: as §1

SMILES strings stand for the structures.

What is called LD50 is the dose expected to kill half of the subjects tested. High values mean a less toxic substance, low ones a more toxic substance. As for `CCOc1ccccc1N1CCN(CCCCn2cnc3ccccc3c2=O)CC1` [Compound 5, 3-{4-[4-(2-Ethoxyphenyl)-1-piperazinyl]butyl}-4(3H)-quinazolone], in the data set with α1 -receptor, the “Percentage of inhibition of blood pressure increase” value was found to be 89.6%. Moreover, the Kb in data set [1] is 0.398 nM. Besides, the LD50 in data set [2] was 150 mg/kg. Also, the “maximum hypotensive effect on systolic pressure, SD rat” value in the data set with SD rat was 57.5 mmHg. For the same molecule, the “maximum hypotensive effect on systolic pressure, SHR rat” value (“maximum hypotensive effect … SHR rat” for short) in the data set on SHR rat is recorded as “+++ (pressure drop of 21 to 30 mmHg)”.
As to `CCOc1ccccc1N1CCN(CCn2c(C)nc3nc(C)cc(C)c3c2=O)CC1` [Compound 8], the Kb in data set [1] was 6.31 nM. In data set [2], this molecule had an LD50 of 207 mg/kg. Also, the “maximum hypotensive effect … SHR rat” value in the data set on SHR rat was “++ (pressure drop of 11 to 20 mmHg)”.
On to `CCOc1ccccc1N1CCN(CCn2c(C)nc3ccccc3c2=O)CC1` [Compound 3], for which the Kb in data set [1] is 3.16 nM. This molecule registered an LD50 in data set [2] of 119 mg/kg. Besides, the “maximum hypotensive effect … SHR rat” value in the data set on SHR rat was “+++ (pressure drop of 21 to 30 mmHg)”.
Consider `CCOc1ccccc1N1CCN(CCCn2c(C)nc3ccccc3c2=O)CC1` [Compound 4], for which the Kb in data set [1] was 10 nM. Further, the LD50 in data set [2] was 152 mg/kg. Besides, the “maximum hypotensive effect … SHR rat” value in the data set on SHR rat is “++ (pressure drop of 11 to 20 mmHg)”.
In the same order, the values of `CCOc1ccccc1N1CCN(CCn2cnc3ccccc3c2=O)CC1` [Compound 1, 3-[2-[4-(2-Ethoxyphenyl)-1-piperazinyl]-ethyl]-4(3H)-quinazolone] are 0.501 nM, 400 mg/kg and “+++ (pressure drop of 21 to 30 mmHg)”.
For `CCOc1ccccc1N1CCN(CCCCn2c(=O)n(-c3ccccc3)c(=O)c3c(C)cc(C)nc32)CC1` [Compound 10, 3-Phenyl-5,7-dimethyl-1-[4-[4-(2-ethoxyphenyl)-1-piperazinyl]butyl]pyrido[2,3-d]pyrimidine-2,4(1H,3H)-dione], in that order: 7.94 nM, 328 mg/kg and “++ (pressure drop of 11 to 20 mmHg)”.
For `CCOc1ccccc1N1CCN(CCCn2c(C)nc3nc(C)cc(C)c3c2=O)CC1` [Compound 6, 2,5,7-Trimethyl-3-[3-[4-(2-ethoxyphenyl)-1-piperazinyl]-propyl]pyrido[2,3-d]pyrimidin-4(3H)-one], in that order: 2.51 nM, 128 mg/kg and “++ (pressure drop of 11 to 20 mmHg)”.
Consider `CCOc1ccccc1N1CCN(CCCCn2c(C)nc3nc(C)cc(C)c3c2=O)CC1` [Compound 7], for which the Kb in data set [1] is 5.01 nM. Moreover, the LD50 in data set [2] was found to be 137 mg/kg. In addition, the “maximum hypotensive effect … SHR rat” value with SHR rat is recorded as “++ (pressure drop of 11 to 20 mmHg)”.
